Source: ChEMBL document CHEMBL2034960, “Bryonolic acid transcriptional control of anti-inflammatory and antioxidant genes in macrophages in vitro and in vivo” (J Nat Prod, 2012)

Tested on: RAW264.7
Assay: Cytotoxicity against mouse RAW264.7 cells at 100 uM after 8 hrs by MTT assay
Type: cell-based
Conditions: raw264.7, 8 h

C=C(C)[C@@H]1CC[C@]2(C(=O)O)CC[C@]3(C)[C@H](CC[C@@H]4[C@@]5(C)CC[C@H](O)C(C)(C)[C@@H]5CC[C@]43C)[C@@H]12 [BETULINIC ACID]
Activity: Toxic
